Converted amounts (≈) assume the structure as drawn.
Legend:
[1] = target: T1, glucocerebrosidase (Gcase) (Homo sapiens, UniProt P04062); experiment: Glucocerebrosidase (Gcase) activation assay, 4-methylumbelliferyl-beta-D-glucopyranoside substrate, with saposin C; assay type: biochemical; settings: 10 nM GCase, 100 nM saposin C, pH 4.7; for activation at 0.1 µM: 0.1 μM test compound, read-out: Percent Gease Activation 0.1 μM Test Compound; for activation at 1 µM: 1 μM test compound, read-out: Percent Gease Activation 1 μM Test Compound
T1 construct: micellar solution containing 10 nM GCase and 100 nM saposin C
T1 sequence (P04062 40-536): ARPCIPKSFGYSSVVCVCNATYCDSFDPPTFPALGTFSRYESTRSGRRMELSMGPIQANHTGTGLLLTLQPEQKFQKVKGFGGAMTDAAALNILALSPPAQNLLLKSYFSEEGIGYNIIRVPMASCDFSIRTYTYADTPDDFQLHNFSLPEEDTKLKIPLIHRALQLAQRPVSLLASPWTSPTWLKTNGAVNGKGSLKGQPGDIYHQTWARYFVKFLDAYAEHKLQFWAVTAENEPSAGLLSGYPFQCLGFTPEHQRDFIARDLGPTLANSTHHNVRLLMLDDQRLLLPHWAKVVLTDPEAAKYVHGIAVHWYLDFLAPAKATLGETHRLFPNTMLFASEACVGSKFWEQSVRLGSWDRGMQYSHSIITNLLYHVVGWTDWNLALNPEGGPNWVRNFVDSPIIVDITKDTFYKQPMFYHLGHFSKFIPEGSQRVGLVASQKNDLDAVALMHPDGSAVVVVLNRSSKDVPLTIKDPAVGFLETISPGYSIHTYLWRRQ
Description: The ability of exemplary compounds to activate glucocerebrosidase (Gcase) was measured.
A 484 μL aliquot of a 1.0 mg/mL solution of phosphatidylserine (PS) (Sigma P7769) in chloroform was evaporated under a stream of nitrogen for 1 hour. The lipid film was dissolved over 4 minutes of vigorous vortexing in 40 mL of 176 mM K2HPO4/50 mM citric acid (pH 4.7) containing 7.5 μL of triton X-100, resulting in a mixed micellar preparation with a composition of 0.32 mM triton and 0.37 mol % PS. 4-Methylumbelliferyl-beta-D-glucopyranoside (ACROS-337025000) was dissolved in the micellar solution to a final concentration of 2 mM for use as the reaction substrate.
Test compounds were diluted to the desired concentrations with dimethylsulfoxide (DMSO) from 10 mM stocks, and 0.41 μL of the DMSO compound mixture was added to 100 μL of micellar solution containing 10 nM GCase and 100 nM saposin C (Enzo ALX-201-262-C050). Pre-incubation was allowed to occur for 30 minutes at room temperature, after which the reaction was initiated by combining 25 μL of substrate solution with 25 μL of compound/GCase/saposin mixture. The reaction proceeded for 15 minutes at room temperature and was stopped by adding 150 μL of 1M glycine, pH 12.5. The endpoint of the reaction was monitored by measuring fluorescence intensity (excitation: 365 nm; emission: 440 nm) on a SpectraMax i3 instrument (Molecular Devices). Test compounds were screened at 1.0 and 0.1 μM final concentration, and subsequent 8-point dose response curves were obtained using 3-fold dilutions from a maximum final concentration of 5 μM.
For experiments in which the test compound was used at a concentration of 1.0 μM, the symbol “+” indicates less than 30% Gcase activation; the symbol “++” indicates Gcase activation in the range of 30% up to 60%; and the symbol “+++” indicates Gcase activation greater than 60%. For experiments in which the test compound was used at a concentration of 0.1 μM, the symbol “*” indicates less than 10% Gcase activation; the symbol “**” indicates Gcase activation in the range of 10% up to 20%; and the symbol “***” indicates greater than 20% Gcase activation.

[2] = Compound solubility in water; assay type: physicochemical

| Compound | activation at 0.1 µM [1] [%] | activation at 1 µM [1] [%] | solubility [2] [µg/mL] |
| --- | --- | --- | --- |
| CCCCCOC1CCC(NC(=O)c2ncn3c(C(C)C)cc(C)nc23)CC1 (stereo not drawn) [III-44] | < 10 | 30 to 60 | 30.9 (≈ 79.9 µM) |
| Cc1cc(C(C)C)n2cnc(C(=O)Nc3cccc4c3CCC4)c2n1 [III-45] | > 20 | > 60 | 1 (≈ 2.99 µM) |
| Cc1cc(C)n2cnc(C(=O)N[C@H]3CC[C@H](OC4CCC(C)(C)CC4)CC3)c2n1 [III-46] | 10 to 20 | > 60 | 4.9 (≈ 12.3 µM) |
| CCCCCCO[C@H]1CC[C@H](NC(=O)c2ncn3c(C)cc(C)nc23)C1 [III-47] | < 10 | > 60 | 30.6 (≈ 85.4 µM) |
| CCCOc1cccc(C(C)(C)NC(=O)c2ncn3c(C4CC4)cc(COC)nc23)c1 [III-50] | 10 to 20 | > 60 | 31.3 (≈ 74.1 µM) |
| CCCOc1cccc(C(C)(C)NC(=O)c2ncn3c(COC)cc(C4CC4)nc23)c1 [III-51] | > 20 | > 60 | 10.5 (≈ 24.9 µM) |
| CCCOc1cccc(C(C)(C)NC(=O)c2ncn3c(COC)cc(COC)nc23)c1 [III-52] | 10 to 20 | > 60 | 37.6 (≈ 88.2 µM) |
| CCCOc1cccc(C(C)(C)NC(=O)c2ncn3c(COC)c(OC)c(C)nc23)c1 [III-53] | < 10 | 30 to 60 | 52.9 (≈ 124 µM) |
| COCc1cc(C2CC2)n2cnc(C(=O)NC(C)(C)c3cccc(C#N)c3)c2n1 [III-54] | < 10 | < 30 | 23.4 (≈ 60.1 µM) |
| COCc1cc(C2CC2)n2cnc(C(=O)NC(C)(C)c3cccc(OC4CC4)c3)c2n1 [III-55] | 10 to 20 | > 60 | 26.3 (≈ 62.5 µM) |
| COCc1cc(C2CC2)nc2c(C(=O)NC(C)(C)c3cccc(OC4CC4)c3)ncn12 [III-56] | 10 to 20 | > 60 | 14.4 (≈ 34.2 µM) |
| COCc1cc(C(C)C)n2cnc(C(=O)NC(C)(C)c3cccc(OC4CC4)c3)c2n1 [III-57] | 10 to 20 | > 60 | 38.5 (≈ 91.1 µM) |
| COCc1cc(C(C)C)nc2c(C(=O)NC(C)(C)c3cccc(OC4CC4)c3)ncn12 [III-58] | 10 to 20 | > 60 | 28.9 (≈ 68.4 µM) |
| CCOCc1cccc(C(C)(C)NC(=O)c2ncn3c(COC)cc(C4CC4)nc23)c1 [III-59] | < 10 | 30 to 60 | 26.3 (≈ 62.2 µM) |
| CCOCc1cccc(C(C)(C)NC(=O)c2ncn3c(C(C)C)cc(COC)nc23)c1 [III-60] | < 10 | < 30 | 31.2 (≈ 73.5 µM) |
| CCOCc1cccc(C(C)(C)NC(=O)c2ncn3c(COC)cc(C(C)C)nc23)c1 [III-61] | < 10 | 30 to 60 | 20.6 (≈ 48.5 µM) |
| CO[C@H]1CC[C@H](C(C)(C)NC(=O)c2ncn3c(C)cc(C)nc23)CC1 [III-62] | < 10 | < 30 | 27 (≈ 78.4 µM) |
| CO[C@H]1CC[C@@H](C(C)(C)NC(=O)c2ncn3c(C)cc(C)nc23)CC1 [III-63] | < 10 | 30 to 60 | 36.2 (≈ 105 µM) |
| Cc1cc(C)n2cnc(C(=O)Nc3ccc(-c4cscn4)cc3)c2n1 [III-64] | < 10 | 30 to 60 | 0.6 (≈ 1.72 µM) |
| Cc1cc(C)n2cnc(C(=O)Nc3cccc4c3CCC4)c2n1 [III-65] | 10 to 20 | > 60 | 0.9 (≈ 2.94 µM) |
| Cc1cc(C)n2cnc(C(=O)Nc3ccc(-c4ccco4)nc3)c2n1 [III-66] | < 10 | < 30 | < 0.01 |
| Cc1cc(C)n2cnc(C(=O)NC3Cc4ccccc4C3)c2n1 [III-67] | < 10 | < 30 | 18 (≈ 58.8 µM) |
| Cc1cc(C)n2cnc(C(=O)NC3CCc4ccccc43)c2n1 (stereo not drawn) [III-68] | < 10 | < 30 | 21 (≈ 68.5 µM) |
| Cc1cc(C)n2cnc(C(=O)NC3CCc4ccccc4C3)c2n1 (stereo not drawn) [III-69] | < 10 | 30 to 60 | 16.6 (≈ 51.8 µM) |
| CCCCCO[C@H]1CC[C@H](NC(=O)c2ncn3c(C)cc(C)nc23)CC1 [III-70] | 10 to 20 | 30 to 60 | 19.6 (≈ 54.7 µM) |
| Cc1cc(C)n2cnc(C(=O)NC3CCCc4ccccc43)c2n1 (stereo not drawn) [III-71] | < 10 | 30 to 60 | 70.7 (≈ 221 µM) |

The next lines start with the values.

| activation at 0.1 µM [1] [%] | activation at 1 µM [1] [%] | solubility [2] [µg/mL] | Compound |
| --- | --- | --- | --- |
| < 10 | 30 to 60 | 23.6 (≈ 55.1 µM) | COCc1cc(C2CC2)n2cnc(C(=O)NC3(C)CCOc4c(F)ccc(F)c43)c2n1 (stereo not drawn) [III-72] |
| < 10 | < 30 | 31.6 (≈ 74.8 µM) | CCOCc1cccc(C(C)(C)NC(=O)c2ncn3c(C4CC4)cc(COC)nc23)c1 [III-73] |
| < 10 | < 30 | 37.3 (≈ 119 µM) | Cc1cc(C)n2cnc(C(=O)N[C@@H](C)c3ccccc3F)c2n1 [III-74] |
| < 10 | 30 to 60 | 22.6 (≈ 69.7 µM) | COc1ccccc1[C@H](C)NC(=O)c1ncn2c(C)cc(C)nc12 [III-75] |
| < 10 | 30 to 60 | 23 (≈ 70.9 µM) | COc1ccccc1[C@@H](C)NC(=O)c1ncn2c(C)cc(C)nc12 [III-76] |
| < 10 | 30 to 60 | 26 (≈ 79.1 µM) | Cc1cc(C)n2cnc(C(=O)N[C@@H](C)c3cccc(Cl)c3)c2n1 [III-77] |
| < 10 | 30 to 60 | 39.5 (≈ 121 µM) | CCC(NC(=O)c1ncn2c(C)cc(C)nc12)c1ccc(F)cc1 (stereo not drawn) [III-78] |
| < 10 | 30 to 60 | 32 (≈ 93.5 µM) | COc1ccc(F)cc1C(C)NC(=O)c1ncn2c(C)cc(C)nc12 (stereo not drawn) [III-79] |
| < 10 | < 30 | 25.9 (≈ 76.5 µM) | CCOc1ccc(C(C)NC(=O)c2ncn3c(C)cc(C)nc23)cc1 (stereo not drawn) [III-80] |
| 10 to 20 | > 60 | 20.3 (≈ 59.2 µM) | CCC(NC(=O)c1ncn2c(C)cc(C)nc12)c1cccc(Cl)c1 (stereo not drawn) [III-81] |
| < 10 | > 60 | 14.8 (≈ 43.2 µM) | Cc1cc(C)n2cnc(C(=O)NC(C)(C)c3cccc(Cl)c3)c2n1 [III-82] |
| < 10 | 30 to 60 | 16.5 (≈ 50.2 µM) | Cc1cc(C)n2cnc(C(=O)N[C@H](C)c3ccc(Cl)cc3)c2n1 [III-83] |
| > 20 | > 60 | 0.2 (≈ 0.54 µM) | CCCCO[C@H]1C[C@H]2CC[C@@H](C1)[C@H]2NC(=O)c1ncn2c(C)cc(C)nc12 [III-84] |
| < 10 | > 60 | 13.1 (≈ 35.4 µM) | CCCCO[C@H]1[C@@H]2CC[C@H]1C[C@@H](NC(=O)c1ncn3c(C)cc(C)nc13)C2 [III-85] |
| 10 to 20 | > 60 | 14.6 (≈ 39.4 µM) | CCCCO[C@@H]1[C@@H]2CC[C@H]1C[C@@H](NC(=O)c1ncn3c(C)cc(C)nc13)C2 [III-86] |
